Laboratory results taken from patent publication US20140179518A1, “Pesticidal Mixtures Comprising Cyanosulfoximine Compounds” (BASF SE, priority 2007, published 2014).
Read-outs that look alike come from different tables or passages of the source.

Experiments:
Format in all cases: cell-based
Settings in all cases: single active
Botrytis cinerea = assay: Activity against the grey mold Botrytis cinerea in the microtiterplate test (Botrci)
Septoria tritici = assay: Activity against leaf blotch on wheat caused by Septoria tritici (Septtr), microtiter plate
Phytophthora infestans = test system: Phytophthora infestans
Pyricularia oryzae = test system: Pyricularia oryzae
[1] = 4 ppm, 405 nm, 7 days after inoculation
[2] = 63 ppm, 405 nm, 7 days after inoculation

**Q.** For `Fc1ccc([C@]2(Cn3cncn3)O[C@H]2c2ccccc2Cl)cc1` (racemic) [Epoxiconazol, (2RS,3SR)-1-[3-(2-chlorophenyl)-2,3-epoxy-2-(4-fluorophenyl)propyl]-1H-1,2,4-triazole], which Observed efficacy (Botrytis cinerea; 0.063 ppm, 7 days) is on record?
**A.** 3%

**Q.** What about the Observed efficacy (Septoria tritici; 0.063 ppm, 7 days) of the same compound?
**A.** 68%

**Q.** `CC(C)OC(=O)N[C@H](C(=O)N[C@H](C)c1nc2ccc(F)cc2s1)C(C)C` [Benthivalicarb, isopropyl {(S)-1-[(1R)-1-(6-fluorobenzothiazol-2-yl)-ethylcarbamoyl]-2-methylpropyl}carbamate] was tested. Which Observed efficacy (Phytophthora infestans; 0.063 ppm, 7 days) did it give?
**A.** 65%

**Q.** Which Observed efficacy (Botrytis cinerea; 16 ppm, 7 days) does the source give for `N#CN=S1(=O)CCCC1Cc1ccc(Cl)nc1` (centres unmarked) [C.I.5] here?
**A.** 0%

**Q.** What about the Observed efficacy (Phytophthora infestans; 1 ppm, 7 days) of the same compound?
**A.** 0%

**Q.** And the Observed efficacy (Pyricularia oryzae; 16 ppm, 7 days)?
**A.** 3%

**Q.** What about the Observed efficacy (Septoria tritici; 0.25 ppm, 7 days) of the same compound?
**A.** 0%

**Q.** What about the Observed efficacy (Septoria tritici; [1]) of the same compound?
**A.** 2%

**Q.** With `CC(c1ccc(C(F)(F)F)nc1)S(C)(=O)=NC#N` (centres unmarked) [C.I.10] as the compound, how does the Observed efficacy (Botrytis cinerea; 4 ppm, 7 days) read?
**A.** 3%

**Q.** And the Observed efficacy (Phytophthora infestans; 1 ppm, 7 days)?
**A.** 0%

**Q.** What about the Observed efficacy (Septoria tritici; 1 ppm, 7 days) of the same compound?
**A.** 0%

**Q.** And the Observed efficacy (Septoria tritici; [1])?
**A.** 2%

**Q.** Which Observed efficacy (Botrytis cinerea; [2]) does the source give for `CCNC(=O)NC(=O)C(C#N)=NOC` [Cymoxanil, 1-(2-cyano-2-methoxyiminoacetyl)-3-ethylurea] here?
**A.** 17%

**Q.** What about the Observed efficacy (Phytophthora infestans; 0.25 ppm, 405 nm, 7 days after inoculation) of the same compound?
**A.** 32%

**Q.** And the Observed efficacy (Pyricularia oryzae; [2])?
**A.** 8%

**Q.** For `N#Cc1sc2c(=O)c3ccccc3c(=O)c=2sc1C#N` [Dithianon, 5,10-dioxo-5,10-dihydronaphtho[2,3-b][1,4]dithiin-2,3-dicarbonitrile], which Observed efficacy (Botrytis cinerea; 0.25 ppm, 7 days) is on record?
**A.** 12%

**Q.** `CO/N=C(/C1=NOCCO1)c1ccccc1Oc1ncnc(Oc2ccccc2Cl)c1F` [Fluoxastrobin, (E)-{2-[6-(2-chlorophenoxy)-5-fluoropyrimidin-4-yloxy]phenyl}(5,6-dihydro-1,4,2-dioxazin-3-yl)methanone O-methyloxime] was tested. Which Observed efficacy (Septoria tritici; 0.016 ppm, 7 days) did it give?
**A.** 15%

**Q.** How did the Observed efficacy (Septoria tritici; 0.063 ppm, 7 days) turn out when `COC=C(C(=O)OC)c1ccccc1COc1cccc(C(F)(F)F)n1` [Picoxystrobin, methyl 3-methoxy-2-[2-(6-trifluoromethylpyridin-2-yloxymethyl)phenyl]acrylate] was run?
**A.** 63%

**Q.** For `Fc1ccc(Oc2ccnc3cc(Cl)cc(Cl)c23)cc1` [Quinoxyfen, 5,7-dichloro-4-(4-fluorophenoxy)quinoline], which Observed efficacy (Pyricularia oryzae; 16 ppm, 7 days) is on record?
**A.** 4%

**Q.** With `CC(C)(C)C(O)(CCc1ccc(Cl)cc1)Cn1cncn1` (centres unmarked) [Tebuconazol, 1-(4-chlorophenyl)-4,4-dimethyl-3-[1,2,4]triazol-1-ylmethylpentan-3-ol] as the compound, how does the Observed efficacy (Septoria tritici; 0.25 ppm, 7 days) read?
**A.** 67%
